Key:
Kuramochi cells = experiment: BrdU cell proliferation assay (colorimetric ELISA), Kuramochi cells; type: cell-based; conditions: class symbols A-D
Description: A BrdU assay was used as a measure of proliferation based on the DNA replication process of proliferating cells. BrdU, a pyrimidine analog, is added to the cell culture and incorporated into the DNA of proliferating cells. The presence of the BrdU analog was then measured through a colorimetric ELISA. After fixation and permeabilization of cells, peroxidase-conjugated antibody recognizing BrdU is added and allowed to incubate, followed by thorough washing to remove unbound antibody. In order to quantify the amount of bound antibody, peroxidase substrate is added and produces a color that can be measured at 450 nm.
On day −1, Kuramochi cells (Sekisui XenoTech JCRB0098) were seeded at 2,000 cells/well in columns 2-12 of a 96 well plate (Corning, CLS3596) in 150 uL media and allowed to adhere overnight at 37 degree with 5% CO2. In order to assess specificity of the compounds, Kuramochi RB^KO cells were also plated and treated, as RB^KO cells were not expected to show a proliferative response to CCNE/CDK specific inhibitors.
On day 0, the source plate was prepared by adding 10 mM compounds and performing 3-fold serial dilutions for a 4-point dose response of each compound. Using a multichannel pipette, 2 uL of the contents of the source plate were stamped into an intermediate plate with 500 uL of RPMI 1640 Media, GlutaMAX Supplement (Life Technologies, 61870127) in each well of a Nunc 96 DeepWell™ plate, non-treated 96 DeepWell plate, 2 mL/well, sterile, natural, 60/cs (Sigma Z717274) and mixed thoroughly. 50 uL from row A of this intermediate plate were added to rows A-H of one plate of previously seeded Kuramochi cells, and each subsequent row of the intermediate plate was added to a full plate of cells.
On day 4, the plates were developed using the BrdU ELISA Cell Proliferation Assay according to manufacturer's instructions (Roche, 11647229001). Briefly, BrdU was diluted 1:100 in Gibco®, Opti-MEM® and 20 μL/well was added, shaken for 10 minutes at 350 rpm, and then returned to the incubator for 1 hour. Following incubation, the medium was discarded, and the cells were fixed by adding 200 μL of Fix/Denature solution. The anti-BrdU peroxidase antibody was diluted 1:1000 in OptiMEM, added at 100 μL/well, and incubated while shaking (350 rpm) for one hour. Three washes with PBS were performed to remove any unbound antibody, followed by the addition of 100 μL of substrate solution to each well. […] was then added to halt the reaction, and plates were read out using an Envision spectrophotometer (Perkin Elmer) set to read 450 nm absorbance. Background absorbance values from empty wells were subtracted from all samples and then normalized to DMSO treated wells.

CDK2/Cyclin E1(14-475) = CDK2/Cyclin E1(14-475) (Homo sapiens, UniProt P24941); experiment: Caliper LabChip EZ Reader mobility shift assay, inhibition of CDK2/Cyclin E1 activity; type: biochemical; conditions: class symbols A-D
Description: Inhibition of CDK2/Cyclin E1 activity in the presence of compounds of the present disclosure was evaluated using a Caliper LabChip® EZ Reader mobility shift assay. In the assay, activated CDK2/Cyclin E1 catalyzes the phosphorylation of a fluorescently tagged peptide 5-FAM-QSPKKG-CONH2 (PerkinElmer, FL Peptide 18) which induces a difference in capillary electrophoresis mobility. The peptide substrate and product were measured, and the conversion ratio was used to determine the inhibition (as % activity and IC50 values) of CDK2/Cyclin E1. Reactions contained 50 mM HEPES pH 7.5, 10 mM MgCl2, 1 mM EDTA, 2 mM DTT, 0.01% Brij35, 0.5 mg/mL BSA, 0.1% DMSO, 2.5 nM CDK2/Cyclin E1(14-475), 100 μM ATP, and 1.5 μM fluorescent peptide substrate.
Dose titrations of inhibitors in 100% DMSO were combined with 3.25 nM CDK2/Cyclin E1(14-475) and 130 μM of ATP in reaction buffer. The mixtures were incubated for 30 minutes before the addition of fluorescent peptide substrate to initiate the kinase reaction. The final conditions were 2.5 nM CDK2/Cyclin E1(14-475), 100 μM ATP, and 1.5 μM fluorescent peptide. The reactions were stopped after 100 minutes with the addition of EDTA (6 mM final EDTA concentration). The stopped reactions were analyzed on a Caliper LabChip® EZ Reader II. The conversion ratios were normalized to yield % activity, plotted against compound concentration, and fit to a four-parameter equation to determine the IC50 for each compound.

| SMILES | IC50 (Kuramochi cells) | IC50 (CDK2/Cyclin E1(14-475)) |
| --- | --- | --- |
| CNC(=O)[C@H](CCCc1ccccc1)NC(=O)C1CN(C(=O)Cc2c[nH]c3cc(Cl)ccc23)CC2CN(C(=O)c3ccc4cnccc4c3)CC21 (some centres unmarked) [I-18] | > 10 µM | > 10 µM |
| CNC(=O)[C@H](CCCc1ccccc1)NC(=O)C1CN(C(=O)Cc2c[nH]c3cc(Cl)ccc23)CC2CN(C(=O)c3ccc(S(N)(=O)=O)c(OC)c3)CC21 (some centres unmarked) [I-31] | > 10 µM | > 10 µM |
| CNC(=O)[C@H](CCCc1ccccc1)NC(=O)C1CN(C(=O)c2ccc(C)[nH]2)CC2CN(C(=O)c3ccc(OC(C)C)c(OC)c3)CC21 (some centres unmarked) [I-189] | > 10 µM | > 10 µM |
| CNC(=O)[C@H](CCCc1ccccc1)NC(=O)C1CN(C(=O)Cc2c[nH]c3ccc(F)cc23)CC2CN(C(=O)c3ccc(OC(C)C)c(OC)c3)CC21 (some centres unmarked) [I-173] | > 10 µM | 0.5 to 5 µM |
| CNC(=O)[C@@H](CCCC1CCCCC1)NC(=O)C1CN(C(=O)Cc2c[nH]c3cc(Cl)ccc23)CC2CN(C(=O)c3ccc(OC(C)C)c(OC)c3)CC21 (some centres unmarked) [I-112] | > 10 µM | 5 to 10 µM |
| CNC(=O)[C@H](CCCc1ccccc1)NC(=O)C1CN(C(=O)Cc2c[nH]c3cc(Cl)ccc23)CC2CN(C(=O)c3cc(C)[nH]n3)CC21 (some centres unmarked) [I-56] | > 10 µM | 0.5 to 5 µM |
| CNC(=O)[C@@H](CCCc1ccc(C(F)(F)F)cc1)NC(=O)C1CN(C(=O)Cc2c[nH]c3cc(Cl)ccc23)CC2CN(C(=O)c3ccc(OC(C)C)c(OC)c3)CC21 (some centres unmarked) [I-134] | > 10 µM | > 10 µM |
| CNC(=O)[C@H](CCCc1ccccc1)NC(=O)C1CN(C(=O)Cc2c[nH]c3ccc(OC)cc23)CC2CN(C(=O)c3ccc(OC(C)C)c(OC)c3)CC21 (some centres unmarked) [I-200] | > 10 µM | 5 to 10 µM |
| CNC(=O)[C@H](CCCc1ccccc1)NC(=O)C1CN(C(=O)Cc2c[nH]c3cc(Cl)ccc23)CC2CN(C(=O)c3ccc(NS(C)(=O)=O)c(OC)c3)CC21 (some centres unmarked) [I-66] | > 10 µM | > 10 µM |
| CNC(=O)[C@H](CCCc1ccccc1)NC(=O)C1CN(C(=O)Cc2c[nH]c3cc(Cl)ccc23)CC2CN(C(=O)c3ccc(OC)c(O)c3)CC21 (some centres unmarked) [I-34] | > 10 µM | 5 to 10 µM |
| CNC(=O)[C@H](CCCc1ccccc1)NC(=O)C1CN(C(=O)c2sc(C)nc2C)CC2CN(C(=O)c3ccc(OC(C)C)c(OC)c3)CC21 (some centres unmarked) [I-185] | > 10 µM | > 10 µM |
| CNC(=O)[C@H](CCCc1ccccc1)NC(=O)C1CN(C(=O)Cc2c[nH]c3cc(Cl)ccc23)CC2CN(C(=O)c3nn(C)c4ccccc34)CC21 (some centres unmarked) [I-47] | > 10 µM | > 10 µM |
| CNC(=O)[C@@H](NC(=O)C1CN(C(=O)Cc2c[nH]c3cc(Cl)ccc23)CC2CN(C(=O)c3cc(-c4ccccc4)n[nH]3)CC21)[C@H](C)OCC1CCCCC1 (stereo partly drawn) [I-249, 5-(2-(6-chloro-1H-indol-3-yl)acetyl)-N-((2S,3S)-3-(cyclohexylmethoxy)-1-(methylamino)-1-oxobutan-2-yl)-2-(3-phenyl-1H-pyrazole-5-carbonyl)octahydro-1H-pyrrolo[3,4-c]pyridine-7-carboxamide] | > 10 µM | > 10 µM |
| CNC(=O)[C@H](CCCc1ccccc1)NC(=O)C1CN(C(=O)Cc2c[nH]c3cc(Cl)ccc23)CC2CN(C(=O)c3cc(C)n(C)n3)CC21 (some centres unmarked) [I-39] | > 10 µM | > 10 µM |
| CNC(=O)[C@@H](NC(=O)C1CN(C(=O)Cc2c[nH]c3cc(Cl)ccc23)CC2CN(C(=O)c3ccc(OC(C)C)c(OC)c3)CC21)[C@@H](C)OCc1ccccc1 (some centres unmarked) [I-102] | > 10 µM | 0.5 to 5 µM |
| CNC(=O)[C@H](CCCc1ccccc1)NC(=O)C1CN(C(=O)Cc2c[nH]c3cc(Cl)ccc23)CC2CN(C(=O)c3n[nH]c4ccccc34)CC21 (some centres unmarked) [I-28] | > 10 µM | > 10 µM |

Source: patent US12053459B2, “CDK2 inhibitors and methods of using the same” (Cedilla Therapeutics, Inc., priority 2021, dated 2024)
